Earlier results, collected in patent US20060211660A1, “Combination therapy for topical application in the treatment of dry eye syndrome” (priority 2005, published 2006).
Read-outs that look alike come from different tables or passages of the source.

Legend:
[1] = for anabolic activity relative to standards: relative to standards (typically testosterone)
[2] = for androgenic (virilizing) activity relative to standards: relative to standards (typically testosterone)

Q: Which results are given for `C[C@]12C/C(=C/O)C(=O)C[C@@H]1CC[C@@H]1[C@@H]2CC[C@@]2(C)[C@H]1CC[C@]2(C)O` [oxymetholone]?
A: anabolic activity relative to standards [1]: enhanced; androgenic (virilizing) activity relative to standards [2]: unchanged

Q: With `C[C@]1(O)CC[C@H]2[C@@H]3CCC4=CC(=O)CC[C@]4(C)[C@@]3(F)[C@@H](O)C[C@@]21C` [fluoxymesterone] as the compound, how does the “androgenic (virilizing) activity relative to standards” value [2] read?
A: augmented

Q: With `C[C@]12Cc3c[nH]nc3C[C@@H]1CC[C@@H]1[C@@H]2CC[C@@]2(C)[C@H]1CC[C@]2(C)O` [stanozolol] as the compound, how does the “anabolic activity relative to standards” value [1] read?
A: increased

Q: And the “androgenic (virilizing) activity relative to standards” value [2]?
A: decreased

Q: For `C[C@]12CCC(=O)C[C@@H]1CC[C@@H]1[C@@H]2CC[C@]2(C)[C@@H](O)CC[C@@H]12` [dihydrotestosterone], which “anabolic activity relative to standards” value [1] is on record?
A: enhanced

Q: And the “androgenic (virilizing) activity relative to standards” value [2]?
A: unchanged

Q: For `C[C@]12CC[C@@H]3c4ccc(O)cc4CC[C@H]3[C@@H]1CC[C@@H]2O` [17-β-estradiol], which “improvement in corneal lens transmittance and autofluorescence” value (0.00025% drops every 6 hours, women already taking 2 mg estriol valerate daily by mouth) is on record?
A: varying or marginal improvement

Q: With `C[C@]12CC[C@@H]3c4ccc(O)cc4CC[C@H]3[C@@H]1C[C@@H](O)[C@@H]2O` [estriol] as the compound, how does the “improvement in corneal lens transmittance and autofluorescence” value (post-menopausal patients, low systemic dose 0.25 mg per day) read?
A: varying or marginal improvement

Q: Which results are given for `CCC(=O)O[C@H]1CC[C@H]2[C@@H]3CCC4=CC(=O)CC[C@@H]4[C@H]3CC[C@]12C` [19-nortestosterone propionate]?
A: anabolic activity relative to standards [1]: unchanged; androgenic (virilizing) activity relative to standards [2]: decreased

Q: Which “anabolic activity, percent of that of methyltestosterone” value ([1]; relative to methyltestosterone) does the source give for `C[C@]12COC(=O)C[C@@H]1CC[C@@H]1[C@@H]2CC[C@@]2(C)[C@H]1CC[C@]2(C)O` [oxandrolone, 17 alpha-methyl-17β-hydroxy-2-oxa-5 alpha-androstan-3-one] here?
A: 322%

Q: What about the “anabolic activity relative to standards” value [1] of the same compound?
A: increased

Q: And the “androgenic activity, percent of that of methyltestosterone” value ([2]; relative to methyltestosterone)?
A: 24%

Q: And the “androgenic (virilizing) activity relative to standards” value [2]?
A: decreased
